Laboratory results published in publication PMC10301393 (Viruses, 2023).
In brackets after ≈: the same amount, converted by molar mass.

Tests used:
[1] = test system: SARS-CoV 3CL protease (3CLpro); settings: cited from earlier work
SARS-CoV = settings: Vero E6 cells; cited from earlier work
[2] = test system: human coronavirus 229E (HCoV 229E); assay: Anti-HCoV 229E assay: reduction in virus-induced cytopathogenic effect; assay type: cell-based, human coronavirus 229E in MRC-5 human lung fibroblast; settings: MRC-5 cells, compound at 3 μg/mL (16: 6.7 μM), MOIs 0.01–0.001, 72 h, Figure 4 (n = 3)
[3] = test system: human coronavirus 229E (HCoV 229E); assay: Anti-HCoV 229E assay: reduction in viral titer; assay type: cell-based, human coronavirus 229E in MRC-5 human lung fibroblast; settings: MRC-5 cells, compound at 3 μg/mL, 72 h, Figure 3 (n = 1)
MRC-5 cells = assay: Cell morphology in photonic microscope observation; assay type: cell-based, human; settings: antiviral assay
SARS-CoV-2 = test system: SARS-CoV-2; set-up: method as in earlier work; settings: cited from earlier work

Compound: CC(C)c1cc2c(cc1O)[C@@]1(C)CCCC(C)(C)[C@@H]1CC2 [Compound 1, (+)-ferruginol]
- inhibition for SARS-CoV 3CL protease ([1]; below 100 μM): did not show inhibition
- IC50 [1]: 49600 nM
- EC50 (SARS-CoV): 1390 nM

Compound: CC(C)c1cc2c(cc1O)[C@@]1(C)CCC[C@@](C)(CN)[C@@H]1CC2 [Compound 14, 12-hydroxydehydroabietylamine]
- reduction in the viral-induced cytopathogenic effect (CPE) [2]: reduce the cytopathogenic effect

Compound: CC(C)c1cc2c(cc1O)[C@@]1(C)CCC[C@@](C)(CN3C(=O)c4ccc(F)cc4C3=O)[C@@H]1CC2 [Compound 16, 12-Hydroxy-N,N-(4-fluorophthaloyl)dehydroabietylamine]
- reduction in the viral titer [3]: approximately 2 log

Compound: C=C(CO)c1ccc2c(c1)CC[C@H]1[C@@](C)(C(=O)O)CCC[C@]21C [Compound 7, jiadifenoic acid C, reference compound]
- reduction in the viral-induced cytopathogenic effect (CPE) [2]: no activity

Compound: CC(C)c1cc2c(cc1O)[C@@]1(C)CCC[C@@](C)(CN3C(=O)c4ccccc4C3=O)[C@@H]1CC2 [Compound 3, 18-(phthalimid-2-yl) ferruginol]
- reduction in the viral titer [3]: important reductions in the viral titer
- modification of the cell morphology (MRC-5 cells): induced modification of the cell morphology

Compound: CC(C)c1cc2c(cc1O)[C@@]1(C)CCC[C@@](C)(CO)[C@@H]1CC2 [Compound 12]
- reduction in the viral titer [3]: ~0.5 log

Compound: CC(C)c1cc2c(cc1O)[C@@]1(C)CCC[C@@](C)(CN3C(=O)c4cccc(F)c4C3=O)[C@@H]1CC2 [Compound 15, 12-Hydroxy-N,N-(3-fluorophthaloyl)dehydroabietylamine]
- modification of the cell morphology (MRC-5 cells): induced modification of the cell morphology

Compound: CC(=O)Oc1cc2c(cc1C(C)C)C=C[C@H]1C(C)(C)[C@@H](OC(C)=O)CC[C@]21C [Compound 2, 3β,12-diacetoxyabieta-6,8,11,13-tetraene, reference compound]
- EC50 (SARS-CoV): 1570 nM

Compound: Cc1coc2c1C(=O)C(=O)c1c-2ccc2c1CCCC2(C)C [tanshinone IIA]
- IC50 (anti-SARS-CoV-2 activity) (SARS-CoV-2): 4.08 µg/mL (≈ 13.9 µM)
